Assay results published in article PMC6792352, “Limited Chemical Structural Diversity Found to Modulate Thyroid Hormone Receptor in the Tox21 Chemical Library” (Environmental Health Perspectives, 2019).
Structures can show the parent of a compound that is named as a salt.

Experiment: in vitro
Conditions: rat, gh3-tre-luc cells

Row | SMILES | CC50 at 24 h (AC50 (uM) modified / 1000) | also measured
1 | CCC(C(N)=O)N1CCCC1=O (centres unmarked) [Etiracetam] | > 50 µM | –
2 | CCCCCCCCN[C@@H](C)[C@H](O)c1ccc(SC(C)C)cc1 (racemic) [Suloctdil] | 4.84 µM | –
3 | Nc1cc(Cl)ccc1Cl [2,5-Dichloroaniline] | > 90 µM | –
4 | CCC1(c2cnc[nH]2)Cc2ccccc2C1 [Atipamezole hydrochloride] | > 50 µM | –
5 | CCCCCCCCCCCCCCCC(=O)OC[C@H](COP(=O)([O-])OCC[N+](C)(C)C)OC(=O)CCCCCCCCCCCCCCC [Colfosceril palmitate] | > 50 µM | –
6 | CC(C)(C)NCC(O)c1ccccc1Cl (centres unmarked) [Tulobuterol hydrochloride] | > 50 µM | –
7 | C[Si](C)O[Si](C)(C)O[Si](C)(C)O[Si](C)C | > 90 µM | –
8 | CCCCOC(=O)CCS [Butyl 3-mercaptopropionate] | > 90 µM | –
9 | COS(=O)(=O)C(F)(F)F [Methyl trifluoromethanesulfonate] | > 100 µM | –
10 | C=CC1CC2C=CC1C2 (centres unmarked) [5-Vinyl-2-norbornene] | > 90 µM | –
11 | CC(=O)CC/C=C(\C)CCC=C(C)C [6,10-Dimethyl-5,9-undecadiene-2-one] | > 90 µM | –
12 | NNc1nc(-c2ccc(N)cc2)cs1 [2-Hydrazino-4-(4-aminophenyl) thiazole] | 74.8 µM | –
13 | COc1cccc(-c2ccc(/C=C\CN3CCCCCC3)cc2Cl)c1 [SR125047] | 17.7 µM | –
14 | Cc1cc(C)nc(Nc2ccccc2)n1 [Pyrimethanil] | > 90 µM | –
15 | CC(C)(C)OC(=O)c1cccc(N)c1 [tert-Butyl-3-aminobenzoate] | > 90 µM | –
16 | CCCCCCCCCCCCCCCCOS(=O)(=O)O [Sodium hexyldecyl sulfate] | 50.6 µM | –
17 | CCCCCCCCOC(=O)c1ccccc1C(=O)OCCCCCCCC [Di-n-octyl phthalate] | > 90 µM | –
18 | CCn1c2ccccc2c2cc([N+](=O)[O-])ccc21 [9-Ethyl-3-nitro-9H-carbazole] | > 90 µM | –
19 | Cc1cc(=O)[nH]c(=S)[nH]1 [6-Methyl-2-thiouracil] | > 90 µM | –
20 | COc1c2occc2cc2ccc(=O)oc12 [8-Methoxypsoralen] | > 50 µM | –
21 | CCC(=O)NS(=O)(=O)c1ccc(-c2c(-c3ccccc3)noc2C)cc1 [Parecoxib sodium] | > 50 µM | –
22 | On1ccccc1=S [Sodium (2-pyridylthio)-N-oxide] | 1.83 µM | –
23 | Cc1[nH]c(=O)n(C(C)(C)C)c(=O)c1Cl [Terbacil] | > 90 µM | –
24 | CC1=C(Br)C(=O)C(Br)=C/C1=C(/c1ccccc1S(=O)(=O)O)c1cc(Br)c(O)c(Br)c1C [Bromocresol green sodium salt] | 44.7 µM | –
25 | CCCC[N+](=O)[O-] [1-Nitrobutane] | > 90 µM | –
26 | C#C[C@]1(O)C=C[C@H]2[C@@H]3CCC4=CC(=O)CC[C@@H]4[C@H]3CC[C@@]21CC [Gestodene] | > 50 µM | –
27 | CC(C)c1ccc(C=O)cc1 [4-Isopropylbenzaldehyde] | > 90 µM | –

Row | SMILES | CC50 at 24 h (AC50 (uM) modified / 1000) | also measured
28 | Nc1ccncc1 [4-Aminopyridine] | > 90 µM | –
29 | CCCCCCCCCCCCN1CCCC1=O [1-Dodecyl-2-pyrrolidinone] | 49.6 µM | –
30 | CCCCCC(=O)CC [3-Octanone] | > 90 µM | –
31 | COc1ccccc1Oc1c(NS(=O)(=O)c2ccc(C(C)(C)C)cc2)nc(-c2ncccn2)nc1OCCO [Bosentan] | > 50 µM | –
32 | CC(=O)OCCC(C)CC(C)(C)C (centres unmarked) [3,5,5-Trimethylhexyl acetate] | > 90 µM | –
33 | O=C(O)Cc1csc(-c2ccc(Cl)cc2)n1 [Fenclozic acid] | > 50 µM | –
34 | COC(=O)CCCC(=O)O [5-Methoxy-5-oxopentanoic acid] | > 90 µM | –
35 | CCC(C)(C#N)N=NC(C)(C#N)CC (centres unmarked) [2,2'-Azobis(2-methylbutanenitrile)] | – | CC50 at 24 h (AC50 (uM) modified / 1000, Tox21_110001=Tox21_301414, viability, 1 nM T3 present, 24 h): > 90 µM
36 | CNC(=O)CSP(=O)(OC)OC [Omethoate] | – | CC50 at 24 h (AC50 (uM) modified / 1000, Tox21_110001=Tox21_300968, viability, 1 nM T3 present, 24 h): > 90 µM
37 | CCOC(=O)NNc1nncc2ccccc12 [Todralazine hydrochloride] | > 50 µM | –
38 | O=C1OC(=O)C2CC=CCC12 (centres unmarked) [Tetrahydrophthalic anhydride] | > 90 µM | –
39 | CCCCC1C(=O)N(c2ccccc2)N(c2ccc(O)cc2)C1=O (centres unmarked) [Oxyphenbutazone] | 3.72 µM | –
40 | C=C(C)C(=O)OCC(C)O (centres unmarked) [2-Hydroxypropyl 2-methylacrylate] | > 90 µM | –
41 | Cc1ccc(OC(=O)c2ccccc2O)cc1 [Salicylic acid p-tolyl ester] | > 90 µM | –
42 | COP(=O)(OC)OC(c1ccc(Cl)cc1)P(=O)(OC)OC (centres unmarked) [Mifobate] | > 50 µM | –
43 | CC[C@H](C)[C@H](N)C(=O)O (racemic) [DL-Isoleucine] | > 50 µM | –
44 | CCOC(=O)[C@H](CCc1ccccc1)N[C@@H](C)C(=O)N1[C@H](C(=O)O)C[C@@H]2CCC[C@@H]21 [Ramipril] | > 50 µM | –
45 | O=C(CCCCCCCCC#CI)Oc1ccccc1 [Phenyl 11-iodo-10-undecynoate] | > 50 µM | –
46 | C=CCCCCCCCCCCC [1-Tridecene] | > 5 µM | –
47 | C=C(C)CCCC(C)CCO (centres unmarked) [Rhodinol] | > 90 µM | –
48 | CN=C(N)NC(=O)Nc1c(C)cccc1C [Lidamidine] | > 50 µM | –
49 | CN(C)Cc1cc(CN(C)C)c(O)c(CN(C)C)c1 [2,4,6-Tris(dimethylaminomethyl)phenol] | > 90 µM | –
50 | NC(=O)C(c1ccccc1)(c1ccccc1)[C@@H]1CCN(CCc2ccc3c(c2)CCO3)C1 [Darifenacin hydrobromide] | 14.7 µM | –
51 | CC(C)(C)c1nnc(NS(=O)(=O)c2ccccc2)s1 [Glybuzole] | > 50 µM | –
52 | C[C@@H]1C[C@H]2[C@@H]3CCC4=CC(=O)C=C[C@]4(C)[C@@]3(F)[C@@H](O)C[C@]2(C)[C@@]1(O)C(=O)CO [Dexamethasone] | > 90 µM | –
53 | CC1(C)C(=O)N(Cl)C(=O)N1Br [1-Bromo-3-chloro-5,5-dimethylhydantoin] | > 90 µM | –
54 | COC(=O)CCSCCC(=O)OC [Dimethyl 3,3'-thiodipropionate] | > 90 µM | –

Row | SMILES | CC50 at 24 h (AC50 (uM) modified / 1000) | also measured
55 | CCCCC(=O)N(Cc1ccc(-c2ccccc2-c2nnn[nH]2)cc1)[C@H](C(=O)O)C(C)C [Valsartan] | > 50 µM | –
56 | C=C(C)C1CC=C(C)C(=O)C1 (racemic) [dl-Carvone] | > 90 µM | –
57 | CC1(N)CCC(C(C)(C)N)CC1 (centres unmarked) [1,8-Diamino-p-menthane] | > 90 µM | –
58 | Nc1ccc(NCCO)c([N+](=O)[O-])c1 [HC Red 3] | 52.7 µM | –
59 | N#CC1(N=NC2(C#N)CCCCC2)CCCCC1 [1,1'-Diazene-1,2-diyldicyclohexanecarbonitrile] | > 90 µM | –
60 | Cc1ncc2n1-c1ccc(Cl)cc1C(c1ccccc1F)=NC2 [Midazolam hydrochloride] | > 50 µM | –
61 | CN1CCN(C(=O)C2CCCCC2)CC1 [Pexantel] | > 50 µM | –
62 | CCCCCCCCOCCC#N [3-(Octyloxy)propanenitrile] | > 90 µM | –
63 | CC(C)=CCCC(C)CCO (centres unmarked) [Citronellol] | > 100 µM | –
64 | O=C(O)CCCl [3-Chloropropanoic acid] | > 90 µM | –
65 | CCCCCCCCS(=O)(=O)Cl [1-Octanesulfonyl chloride] | > 90 µM | –
66 | C=CCc1ccccc1OCC(O)CNC(C)C (centres unmarked) [Alprenolol] | > 50 µM | –
67 | C[n+]1cc2c3c(ccc2c2ccc4cc5c(cc4c21)OCO5)OCO3 [Sanguinarine] | 2.9 µM | –
68 | CCN(Cc1cccc(S(=O)(=O)O)c1)c1ccccc1 [3-((Ethylphenylamino)methyl)benzenesulfonic acid] | > 90 µM | –
69 | O=C(CCCCCCCCc1cccnc1)N1CCC(C=C(c2ccccc2)c2ccccc2)CC1 [Ro 23-7637] | 26.1 µM | –
70 | CC(C)(O/N=C(\C(=O)N[C@@H]1C(=O)N2C(C(=O)[O-])=C(C[n+]3ccccc3)CS[C@H]12)c1csc(N)n1)C(=O)O [Ceftazidime pentahydrate] | > 20 µM | –
71 | CCCCCCCCCCCCSC#N [Lauryl thiocyanate] | > 90 µM | –
72 | Cc1c(NC(=O)c2cccnc2)c(=O)n(-c2ccccc2)n1C [Nifenazone] | > 20 µM | –
73 | C=C(C)C(N)=O [Methacrylamide] | > 90 µM | –
74 | CCN1CCCC1CNC(=O)c1cc(S(=O)(=O)CC)ccc1OC (centres unmarked) [Sultopride hydrochloride] | > 50 µM | –
75 | CC(C)N(Cc1ccccc1)C(=O)C(C)(C)C [Butam] | > 90 µM | –
76 | O=c1[nH]c(=O)n([C@H]2C[C@H](O)[C@@H](CO)O2)cc1I [Idoxuridine] | > 20 µM | –
77 | COc1cc(N)c(Cl)cc1C(=O)NC1CCN(Cc2ccccc2)CC1 [Clebopride maleate] | > 20 µM | –
78 | CCCc1c2oc(C(=O)O)cc(=O)c2cc2c(=O)cc(C(=O)O)n(CC)c12 [Nedocromil] | > 50 µM | –
79 | CSc1nc(N=[N+]=[N-])nc(NC(C)C)n1 [Aziprotryne] | – | CC50 at 24 h (AC50 (uM) modified / 1000, Tox21_110001=Tox21_301004, viability, 1 nM T3 present, 24 h): > 90 µM
80 | COc1ccc(/C=C/C(=O)O)cc1 [4-Methoxy-(2E)-cinnamic acid] | > 50 µM | –
